2 molecules from patent US9681664B2, “Macrocyclic picolinamides as fungicides” (Dow Agrosciences LLC, priority 2012, dated 2017) can be followed below.

Like-named read-outs stand apart in the source and are kept apart here.

One may read the melting point as the temperature, or range, at which the solid turns liquid.

Data set [1] has as its system Mycosphaerella graminicola; Anamorph: Septoria tritici. As to the kind of experiment: Leaf blotch of wheat (SEPTTR) disease control on wheat seedlings. The format is in vivo. Conditions: Zymoseptoria tritici, High volume application, 100 ppm. The method in brief:
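Protective or curative format: Septoria tritici inoculation either preceded or followed fungicide application to first-leaf Yuma wheat. Severity scored 0–100%; control expressed versus untreated.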

Data set [2] concerns Puccinia triticina; Synonym: Puccinia recondite f. sp. tritici. As to the kind of experiment: Wheat brown rust (PUCCRT) disease control on wheat seedlings. To be noted: Puccinia triticina, High volume application, 100 ppm. The format is in vivo. The method in brief: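 Yuma wheat grown to first fully emerged leaf was inoculated with Puccinia triticina spore suspension either before or after fungicide treatment, held overnight at 22° C. and 100% RH in darkness, then kept at 24° C. Fungicide applied by booth sprayer to run-off (acetone/water, 110 ppm Triton X-100) or as EC by track spray.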

Another data set concerns Phakopsora pachyrhizi. As to the kind of experiment: Asian soybean rust (PHAKPA) disease control. Format: in vivo. Conditions: topical, high volume. On the procedure: Technical grades of materials were dissolved in acetone, which were then mixed with nine volumes of water containing 0.011% Tween 20. The fungicide solutions were applied onto soybean seedlings using an automated booth sprayer to run-off. All sprayed plants were allowed to air dry prior to further handling.
Soybean plants (variety Williams 82) were grown in soil-less Metro mix, with one plant per pot. Two weeks old seedlings were used for testing. Plants were inoculated either 3 days prior to or 1 day after fungicide treatments. Plants were incubated for 24 h in a dark dew room at 22° C. and 100% RH then transferred to a growth room at 23° C. for disease to develop. Disease severity was assessed on the sprayed leaves.

Where [3] appears, read: 24 h, 1 Day Protectant, read-out: SEPTTR 1DP disease control.
Setting [4] is: 72 h, 3 Day Curative, read-out: SEPTTR 3DC disease control.
The mark [5] stands for this setting: 24 h, 1 Day Protectant, read-out: PUCCRT 1DP disease control.
The mark [6] stands for this setting: 72 h, 3 Day Curative, read-out: PUCCRT 3DC disease control.
Where [7] appears, read: 24 h, 1 Day Protectant, read-out: Disease Control PHAKPA 1DP.

Consider `COc1ccc(O[C@H]2CCC[C@H](NC(=O)c3nccc(OC)c3OCOC(C)=O)C(=O)O[C@@H](C)[C@@H]2OCC(C)C)cc1` [F68], for which the melting point lay in the range of 118 to 120 °C. The pest or weed control at 100 ppm in data set [1] (setting [3]) lay within 80 to 100%. Moreover, in data set [1] (setting [4]), the pest or weed control at 100 ppm fell in the range of 80 to 100%. Besides, in data set [2] (setting [5]), the pest or weed control at 100 ppm fell in the range of 80 to 100%. In data set [2] (setting [6]), the pest or weed control at 100 ppm was 80 to 100%. Moreover, the pest or weed control at 25 ppm with Phakopsora pachyrhizi (setting [7]) lay in the range of 80 to 100%.
Regarding `COc1ccnc(C(=O)N[C@H]2CCC[C@H](Oc3ccccc3)[C@@H](OC3CCCC3)[C@H](C)OC2=O)c1OCOC(C)=O` [F80], the melting point lay in the range of 148 to 149 °C. Moreover, the pest or weed control at 100 ppm in data set [1] (setting [3]) fell in the range of 80 to 100%. Also, the pest or weed control at 100 ppm in data set [1] (setting [4]) fell in the range of 80 to 100%. For the same molecule, in data set [2] (setting [5]), the pest or weed control at 100 ppm lay in the range of 80 to 100%. Moreover, in data set [2] (setting [6]), the pest or weed control at 100 ppm lay in the range of 80 to 100%. For the same molecule, the pest or weed control at 25 ppm in the data set with Phakopsora pachyrhizi (setting [7]) was 80 to 100%. Moreover, the pest or weed control at 25 ppm with Phakopsora pachyrhizi (72 h, 3 Day Curative, read-out: Disease Control PHAKPA 3DC) fell in the range of 80 to 100%.
